“And” between values parts separate entries of the source, which are not always exact repeats. Equal values may be shown once.
Tests used:
[1] = target: T1, human recombinant P2X7 receptors (Homo sapiens, UniProt Q99572); test: Ethidium Accumulation Assay; assay type: cell-based; conditions: blocking ATP (1 mM) responses; HEK293 cells expressing human P2X7; read-out: pIC50 in the Ethidium Accumulation Assay (or a slightly modified version thereof), human P2X7 receptor antagonist activity (converted)
T1 construct: expressed in transfected cells
T1 sequence (Q99572 1-595): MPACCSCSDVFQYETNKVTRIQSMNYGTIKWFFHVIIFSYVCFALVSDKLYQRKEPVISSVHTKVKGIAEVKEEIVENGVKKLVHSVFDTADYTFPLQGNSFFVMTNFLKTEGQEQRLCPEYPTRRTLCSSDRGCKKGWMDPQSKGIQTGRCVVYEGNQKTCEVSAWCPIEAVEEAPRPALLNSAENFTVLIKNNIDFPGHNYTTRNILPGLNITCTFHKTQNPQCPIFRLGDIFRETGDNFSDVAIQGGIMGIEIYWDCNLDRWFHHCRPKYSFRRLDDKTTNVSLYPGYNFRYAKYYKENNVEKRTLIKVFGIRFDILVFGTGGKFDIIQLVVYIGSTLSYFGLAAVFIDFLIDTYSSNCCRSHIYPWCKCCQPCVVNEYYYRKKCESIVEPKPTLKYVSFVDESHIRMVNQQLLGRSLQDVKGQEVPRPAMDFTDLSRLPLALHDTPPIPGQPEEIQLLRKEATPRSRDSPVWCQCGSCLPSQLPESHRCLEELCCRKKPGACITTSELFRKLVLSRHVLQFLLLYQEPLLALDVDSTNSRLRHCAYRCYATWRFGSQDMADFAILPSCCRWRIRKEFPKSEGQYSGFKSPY
Experimental: Studies were performed using NaCl assay buffer of the following composition: 140 mM NaCl, 10 mM HEPES [4-(2-hydroxyethyl)-1-piperazine-1-ethanesulfonic acid], 5 mM N-methyl-D-glucamine, 5.6 mM KCl, 10 mM D-glucose, 0.5 mM CaCl2 (pH 7.4).
Human Embryonic Kidney (HEK) 293 cells, stably expressing human recombinant P2X7 receptors, were grown in poly-D-lysine pretreated 96 well plates for 18-24 hours. (The cloning of the human P2X7 receptor is described in U.S. Pat. No. 6,133,434, e.g. see Example 3 therein). The cells were washed twice with 350 μl of the assay buffer, before addition of 50 μl of the assay buffer containing the putative P2X7 receptor antagonist compound. (A small amount of dimethyl sulfoxide, for initially dissolving the compound, is optionally used and present in this 50 μl test compound sample.) The cells were then incubated at room temperature (19-21° C.) for 30 min before addition of ATP and ethidium (100 μM final assay concentration). The ATP concentration was chosen to be close to the EC80 for the receptor type and was 1 mM for studies on the human P2X7 receptor. Incubations were continued for 8 or 16 min and were terminated by addition of 25 μl of 1.3M sucrose containing 4 mM of the P2X7 receptor antagonist Reactive Black 5 (Aldrich). Cellular accumulation of ethidium was determined by measuring fluorescence (excitation wavelength of 530 nm and emission wavelength of 620 nm) from below the plate with a Canberra Packard Fluorocount (14 Station Road, Pangbourne, Reading, Berkshire RG8 7AN, United Kingdom) or a FlexStation II 384 from Molecular Molecular Devices (660-665 Eskdale Road, Wokingham, Berkshire RG41 5TS, United Kingdom). Antagonist pIC50 values for blocking ATP responses were determined using iterative curve fitting techniques.

[2] = target: T1, human recombinant P2X7 receptors; test: Fluorescent Imaging Plate Reader (FLIPR) Ca Assay; assay type: cell-based; conditions: blocking BzATP (60 μM) responses; HEK293 or U-2OS cells expressing human P2X7; read-out: pIC50 in the FLIPR Ca Assay (or a slightly modified version thereof), human P2X7 receptor antagonist activity (converted)
Experimental: Studies were performed using NaCl assay buffer of the following composition for human P2X7: 137 mM NaCl; 20 mM HEPES [4-(2-hydroxyethyl)-1-piperazine-1-ethanesulfonic acid]; 5.37 mM KCl; 4.17 mM NaHCO3; 1 mM CaCl2; 0.5 mM MgSO4; and 1 g/L of D-glucose (pH 7.4).
Human Embryonic Kidney (HEK) 293 cells, stably expressing human recombinant P2X7 receptors, were grown in poly-D-lysine pretreated 384 well plates for 24 hours at […] (for a time sufficient for growth of a homogeneous layer of cells at the bottom of the wells). Alternatively, human osteosarcoma (U-20S) cells (commercially available), transduced with modified Baculovirus (BacMam) vector to deliver the gene coding for human P2X7 receptor (i.e. transiently expressing human recombinant P2X7 receptors), were grown in substantially the same conditions as for the HEK293 cells except that the well plates were not pre-treated with poly-D-lysine. (The cloning of the human P2X7 receptor is described in U.S. Pat. No. 6,133,434, e.g. see Example 3 therein). The cells were washed three times with 80 μl of assay buffer, loaded for 1 h at 37° C. with 2 μM Fluo-4-AM [4-(6-acetoxymethoxy-2,7-difluoro-3-oxo-9-xanthenyl)-4′-methyl-2,2′-(ethylenedioxy)dianiline-N,N,N′,N′-tetraacetic acid tetrakis(acetoxymethyl) ester], a Ca^2+-sensitive, cell-permeable, fluorescent dye (Tef Labs. Inc., 9415 Capitol View Drive, Austin, Tex. 78747, USA), washed three times again (3×80 μl), and left with 30 μl buffer before the addition of 10 μl of the assay buffer containing the putative P2X7 receptor antagonist compound, the compound being added at 4× the final assay concentration chosen. The solution of the putative P2X7 receptor antagonist compound was created by (i) dissolving the compound in dimethyl sulfoxide (DMSO) to create a stock solution in DMSO at 200× the final assay concentration, and (ii) mixing 1 μl of the stock solution of the compound in DMSO with 50 μl of the assay buffer to create a solution at about 4× the final assay concentration. The cells were then incubated at room temperature for 30 mins before addition (online, by FLIPR384 or FLIPR3 instrument (Molecular Devices, 1311 Orleans Drive, Sunnyvale, Calif. 94089-1136, USA)) of benzoylbenzoyl-ATP (BzATP) such as to create a 60 μM final assay concentration of BzATP (BzATP was added at 5× this final concentration). The BzATP concentration was chosen to be close to the EC80 for the receptor type. Incubations and reading were continued for 90 sec, and intracellular calcium increase was determined by measuring fluorescence (excitation wavelength of 488 nm and emission wavelength of 516 nm) from below the plate, with FLIPR charged-coupled device (CCD) camera. Antagonist pIC50 values for blocking BzATP responses were determined using iterative curve fitting techniques.

Structure (SMILES)	IC50 [1]	IC50 [2] [nM]
CN1CC(C(=O)NCc2cccc(C(F)(F)F)c2Cl)CC1=O (single isomer, unassigned) [5A stereoisomer 1]	158 to 200 nM	–
CN1CC(C(=O)NCc2cccc(C(F)(F)F)c2Cl)CC1=O (single isomer, unassigned) [5A stereoisomer 2]	39.8 to 50.1 nM	–
C[C@H](c1ccccc1)N1CC(C(=O)NCc2ccc(F)cc2Cl)CC1=O (stereo partly drawn) [Example 1, N-[(2-chloro-4-fluorophenyl)methyl]-5-oxo-1-[(1R)-1-phenylethyl]-3-pyrrolidinecarboxamide]	< 3160 nM	≤ 20000
O=C(NCc1ccc(F)cc1Cl)C1CC(=O)N(C2CC2)C1 (centres unmarked) [Example 2, N-[(2-Chloro-4-fluorophenyl)methyl]-1-cyclopropyl-5-oxo-3-pyrrolidinecarboxamide]	< 3160 nM	≤ 20000
O=C(NCc1ccc(Cl)cc1Cl)C1CC(=O)N(C2CC2)C1 (centres unmarked) [Example 3, 1-Cyclopropyl-N-[(2,4-dichlorophenyl)methyl]-5-oxo-3-pyrrolidinecarboxamide]	< 3160 nM and 31.6 to 316 nM	≤ 20000
O=C(NCc1cccc(C(F)(F)F)c1Cl)C1CC(=O)N(C2CC2)C1 (centres unmarked) [Example 4, N-{[2-chloro-3-(trifluoromethyl)phenyl]methyl}-1-cyclopropyl-5-oxo-3-pyrrolidinecarboxamide]	< 3160 nM and 31.6 to 316 nM	≤ 20000
CN1CC(C(=O)NCc2cccc(C(F)(F)F)c2Cl)CC1=O (centres unmarked) [Example 5, N-{[2-chloro-3-(trifluoromethyl)phenyl]methyl}-1-methyl-5-oxo-3-pyrrolidinecarboxamide]	< 3160 nM and 31.6 to 316 nM and 50.1 to 63.1 nM	≤ 20000
CN1CC(C(=O)NCc2ccc(Cl)cc2Cl)CC1=O (centres unmarked) [Example 6, N-[(2,4-dichlorophenyl)methyl]-1-methyl-5-oxo-3-pyrrolidinecarboxamide]	< 3160 nM and 31.6 to 316 nM	≤ 20000
CCN1CC(C(=O)NCc2ccc(Cl)cc2Cl)CC1=O (centres unmarked) [Example 7, N-[(2,4-dichlorophenyl)methyl]-1-ethyl-5-oxo-3-pyrrolidinecarboxamide]	< 3160 nM and 31.6 to 316 nM	≤ 20000
CCN1CC(C(=O)NCc2cccc(C(F)(F)F)c2Cl)CC1=O (centres unmarked) [Example 8, N-{[2-chloro-3-(trifluoromethyl)phenyl]methyl}-1-ethyl-5-oxo-3-pyrrolidinecarboxamide]	< 3160 nM and 31.6 to 316 nM	≤ 20000
CC(C)CN1CC(C(=O)NCc2cccc(C(F)(F)F)c2Cl)CC1=O (centres unmarked) [Example 9, N-{[2-chloro-3-(trifluoromethyl)phenyl]methyl}-1-(2-methylpropyl)-5-oxo-3-pyrrolidinecarboxamide]	< 3160 nM and 31.6 to 316 nM	≤ 20000
CC(C)CN1CC(C(=O)NCc2ccc(Cl)cc2Cl)CC1=O (centres unmarked) [Example 10, N-[(2,4-dichlorophenyl)methyl]-1-(2-methylpropyl)-5-oxo-3-pyrrolidinecarboxamide]	< 3160 nM and 31.6 to 316 nM	≤ 20000
O=C(NCc1cccc(C(F)(F)F)c1Cl)C1CC(=O)N(Cc2ccccc2)C1 (centres unmarked) [Example 11, N-{[2-chloro-3-(trifluoromethyl)phenyl]methyl}-5-oxo-1-(phenylmethyl)-3-pyrrolidinecarboxamide]	< 3160 nM and 31.6 to 316 nM	≤ 20000
O=C(NCc1ccc(Cl)cc1Cl)C1CC(=O)N(Cc2ccccc2)C1 (centres unmarked) [Example 12, N-[(2,4-dichlorophenyl)methyl]-5-oxo-1-(phenylmethyl)-3-pyrrolidinecarboxamide]	< 3160 nM and 31.6 to 316 nM	≤ 20000

Source: patent US20100292295A1, “5-OXO-3-PYRROLIDINECARBOXAMIDE DERIVATIVES AS P2X7 MODULATORS” (GLAXO GROUP LIMITED, priority 2007, published 2010)
